Reference: patent US20100104511A1, “METHODS AND COMPOSITIONS USING CHELATOR-ANTIBODY CONJUGATES” (priority 2006, published 2010)

Key:
Experiment in all cases: Apoptosis by Annexin-V-Fluos staining and flow cytometry
H3255 cells = conditions: H3255, 10 μM, 72 hours
Experimental: (§1) In vitro Analysis of Apoptosis. […] The cells were washed in PBS. Cell suspension was then stained with Annexin-V-Fluos (Roche Diagnostics, Mannheim, Germany) for 30 minutes before labeled cells were quantitated by flow cytometry (EpicsXL; Beckman Coulter, MarmiMiami, Fla., USA).

MDA-MB-231 cells = conditions: MDA-MB-231, 10 μM, 72 hours
Experimental: as §1

H441 cells = conditions: H441, 10 μM, 72 hours
Experimental: as §1

## COc1cc2ncnc(Nc3ccc(F)c(Cl)c3)c2cc1OCCCN1CCOCC1 [gefitinib]
H3255 cells
  apoptosis percentage after deducting DMSO control: 25.86%
MDA-MB-231 cells
  apoptosis percentage after deducting DMSO control: 6.92%
H441 cells
  apoptosis percentage after deducting DMSO control: 8.13%
